Assay results: patent US8664226B2, “Compound having 3-heteroarylpyrimidin-4-(3H)-one structure and pharmaceutical preparation containing same” (Kowa Company, Ltd., priority 2009, dated 2014)
Read-outs that look alike come from different tables or passages of the source.

Assays:
human PPARγ2 = target: T1, human PPARγ2 (Homo sapiens, UniProt P37231); assay: PPARγ activation activity, Gal4 chimera luciferase transfection assay using COS7 cells; type: cell-based; settings: for EC50: Gal4-human PPARγ2 LBD chimera, luciferase reporter, 16 hours; for Emax: COS-7, 16 h, maximum activity strength relative to the maximum activity of rosiglitazone, read-out: % MAX vs Rosiglitazone
T1 construct: the amino acids 182 to 505 of human PPARγ2; expressed in transfected cells; host or cells: COS7 cells
Procedure: The agonistic activity of the compounds of the invention on PPARγ was measured based on the transfection assay using COS7 cells (DS Pharma Biomedical Co., Ltd., Osaka, Japan), which are the cell line derived from the kidney of the African green monkey. COS7 cells were cultured under 5% CO2 concentration, and DMEM medium containing 10% fetal bovine serum, glutamic acid, and antibiotics was used as a medium.
As an expression vector, a chimera in which DNA binding domain of Gal4, which is a yeast transcription factor, and ligand binding domain of human PPAR^γ2 are fused, i.e., a fused product between the amino acids 1 to 147 of Gal4 transcription factor and the amino acids 182 to 505 of human PPARγ2, was used. Furthermore, as a reporter vector, a firefly luciferase containing five copies of Gal4 recognition sequence in the promoter region was used. Plasmid transfection to the cells was performed according to a method which uses jetPEI (trade name, manufactured by Funakoshi Co., Ltd., Tokyo, Japan). Furthermore, β-galactosidase expression vector was employed as an internal standard.
After the transfection of the cells, the medium was replaced with a DMEM medium (containing 1% serum) added with the compound, and the cells were further cultured for 16 hours. After that, the luciferase activity and β-galactosidase activity in the cell lysis solution were measured.
For the present test, dimethyl sulfoxide (DMSO) was used for dissolution and dilution of the test compounds, and during the cell treatment, the DMSO concentration in DMEM medium (containing 1% serum) was adjusted to 0.1%. As a positive compound, rosiglitazone (trade name, manufactured by ALEXIS Corporation, Switzerland) was used. […] The 50% effective concentration of the test compound (EC50, 50% effect concentration) was calculated by using SAS Preclinical Package Ver5.0 (trade name, manufactured by SAS institute Japan Co., Tokyo, Japan), which is a statistical analysis program.

[1] = target: T2, angiotensin II type 1 receptor (Oryctolagus cuniculus, UniProt P34976); assay: Angiotensin II antagonistic activity in isolated rabbit blood vessels; settings: angiotensin II (10 nM)-induced contraction of rabbit thoracic aorta ring
T2 construct: By using a specimen of isolated rabbit blood vessels; from tissue; host or cells: rabbit thoracic aorta ring (New Zealand White, male)
T2 sequence (P34976 1-359): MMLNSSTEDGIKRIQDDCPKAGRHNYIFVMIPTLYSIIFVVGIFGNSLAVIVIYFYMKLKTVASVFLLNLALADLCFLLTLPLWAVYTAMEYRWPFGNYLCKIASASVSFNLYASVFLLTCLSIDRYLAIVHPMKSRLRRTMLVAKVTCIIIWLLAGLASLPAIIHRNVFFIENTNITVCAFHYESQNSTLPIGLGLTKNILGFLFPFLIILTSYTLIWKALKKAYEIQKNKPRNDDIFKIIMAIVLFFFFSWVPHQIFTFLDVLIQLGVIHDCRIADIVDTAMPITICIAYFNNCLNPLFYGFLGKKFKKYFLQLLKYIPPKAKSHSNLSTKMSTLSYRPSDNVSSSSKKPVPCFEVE
Procedure: By using a specimen of isolated rabbit blood vessels, antagonistic activity of the compounds of the invention against angiotensin II type 1 receptor was estimated from a dose-response curve of angiotensin II-induced blood vessel contraction.
During the measurement, the inside temperature of the magnus bath was maintained at 37° C. and the bath was continuously ventilated with a sufficient amount of mixed gas (95% O2 and 5% CO2). The angiotensin II-induced contraction was converted into a relative value (%) that is based on the angiotensin II (10 nM)-induced contraction in the absence of the compounds of each example. From the concentration-response curve obtained therefrom, 50% inhibition concentration (IC50 value) was calculated by using SAS Preclinical Package Ver5.0 (trade name, manufactured by SAS institute Japan Co., Tokyo, Japan), which is a statistical analysis program.

T1 sequence (P37231 182-505): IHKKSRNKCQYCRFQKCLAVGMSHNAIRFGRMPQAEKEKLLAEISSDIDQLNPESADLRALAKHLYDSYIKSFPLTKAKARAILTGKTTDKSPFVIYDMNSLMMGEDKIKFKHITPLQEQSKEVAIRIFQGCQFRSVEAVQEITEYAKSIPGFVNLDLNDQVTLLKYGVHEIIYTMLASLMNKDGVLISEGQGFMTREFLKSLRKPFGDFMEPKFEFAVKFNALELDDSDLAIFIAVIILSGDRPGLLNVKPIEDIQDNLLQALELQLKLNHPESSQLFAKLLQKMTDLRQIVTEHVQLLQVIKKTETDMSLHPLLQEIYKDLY
T1 sequence (P04386 1-147 partner limits assumed): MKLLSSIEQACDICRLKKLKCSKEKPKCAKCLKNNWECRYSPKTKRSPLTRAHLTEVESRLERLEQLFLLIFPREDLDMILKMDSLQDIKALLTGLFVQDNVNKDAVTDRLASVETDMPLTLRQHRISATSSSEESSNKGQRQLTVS

SMILES | IC50 [1] [nM] | also measured
CCCCc1nc(C)n(-c2ccc(C)cn2)c(=O)c1Cc1ccc(-c2ccccc2-c2nnn[nH]2)cc1 [Example 2, 5-{[2′-(1H-tetrazol-5-yl)biphenyl-4-yl]methyl}-6-butyl-2-methyl-3-(5-methylpyridin-2-yl)pyrimidin-4(3H)-one] | 84 | EC50 (human PPARγ2; COS7 cells, read-out: EC50): 4150 nM; Emax (human PPARγ2; COS7 cells): 24.1%
CCCCc1nc(C)n(-c2ccc(OC)cn2)c(=O)c1Cc1ccc(-c2ccccc2-c2nnn[nH]2)cc1 [Example 3, 5-{[2′-(1H-tetrazol-5-yl)biphenyl-4-yl]methyl}-6-butyl-3-(5-methoxypyridin-2-yl)-2-methylpyrimidin-4(3H)-one] | 18 | EC50 (human PPARγ2; COS7 cells, read-out: EC50): 3740 nM
CCCCc1nc(C)n(-c2ncccc2F)c(=O)c1Cc1ccc(-c2ccccc2-c2nnn[nH]2)cc1 [Example 4, 5-{[2′-(1H-tetrazol-5-yl)biphenyl-4-yl]methyl}-6-butyl-3-(3-fluoropyridin-2-yl)-2-methylpyrimidin-4(3H)-one] | 60 | EC50 (human PPARγ2; COS7 cells, read-out: EC50): 1440 nM
CCCCc1nc(C)n(-c2ccc(F)cn2)c(=O)c1Cc1ccc(-c2ccccc2-c2nnn[nH]2)cc1 [Example 5, 5-{[2′-(1H-tetrazol-5-yl)biphenyl-4-yl]methyl}-6-butyl-3-(5-fluoropyridin-2-yl)-2-methylpyrimidin-4(3H)-one] | 102 | EC50 (human PPARγ2; COS7 cells, read-out: EC50): 3660 nM; Emax (human PPARγ2; COS7 cells): 27.6%
CCCCc1nc(C)n(-c2ncccc2Cl)c(=O)c1Cc1ccc(-c2ccccc2-c2nnn[nH]2)cc1 [Example 6, 5-{[2′-(1H-tetrazol-5-yl)biphenyl-4-yl]methyl}-6-butyl-3-(3-chloropyridin-2-yl)-2-methylpyrimidin-4(3H)-one] | 24 | EC50 (human PPARγ2; COS7 cells, read-out: EC50): 1690 nM; Emax (human PPARγ2; COS7 cells): 20.3%
CCCCc1nc(C)n(-c2ncc(OC(C(N)=O)c3ccccc3)cn2)c(=O)c1Cc1ccc(-c2ccccc2-c2nnn[nH]2)cc1 (centres unmarked) [Example 44, 2-{2-{5-{[2′-(1H-tetrazol-5-yl)biphenyl-4-yl]methyl}-4-butyl-2-methyl-6-oxopyrimidin-1(6H)-yl}pyrimidin-5-yloxy}-2-phenylacetamide] | 963 | –
CCCCc1nc(C)n(-c2ncc(OCCCC(=O)OCC)cn2)c(=O)c1Cc1ccc(-c2ccccc2-c2nnn[nH]2)cc1 [Example 45, ethyl 4-{2-{5-{[2′-(1H-tetrazol-5-yl)biphenyl-4-yl]methyl}-4-butyl-2-methyl-6-oxopyrimidin-1(6H)-yl}pyrimidin-5-yloxy}butanoate] | 242 | –
CCCCc1nc(C)n(-c2ncc(OCCCC(=O)NCCC)cn2)c(=O)c1Cc1ccc(-c2ccccc2-c2nnn[nH]2)cc1 [Example 50, 4-{2-{5-{[2′-(1H-tetrazol-5-yl)biphenyl-4-yl]methyl}-4-butyl-2-methyl-6-oxopyrimidin-1(6H)-yl}pyrimidin-5-yloxy}-N-propylbutanamide] | 14 | –
CCCCc1nc(C)n(-c2ncc(OCCCCC(=O)NCC)cn2)c(=O)c1Cc1ccc(-c2ccccc2-c2nnn[nH]2)cc1 [Example 54, 5-{2-{5-{[2′-(1H-tetrazol-5-yl)biphenyl-4-yl]methyl}-4-butyl-2-methyl-6-oxopyrimidin-1(6H)-yl}pyrimidin-5-yloxy}-N-ethylpentanamide] | 25 | –
CCCCc1nc(C)n(-c2ncc(OCCCCC(=O)N(CC)CC)cn2)c(=O)c1Cc1ccc(-c2ccccc2-c2nnn[nH]2)cc1 [Example 55, 5-{2-{5-{[2′-(1H-tetrazol-5-yl)biphenyl-4-yl]methyl}-4-butyl-2-methyl-6-oxopyrimidin-1(6H)-yl}pyrimidin-5-yloxy}-N,N-diethylpentanamide] | < 100 | –
CCCCc1nc(C)n(-c2nnc(C)c(C)n2)c(=O)c1Cc1ccc(-c2ccccc2-c2nnn[nH]2)cc1 [Example 61, 5-{[2′-(1H-tetrazol-5-yl)biphenyl-4-yl]methyl}-6-butyl-3-(5,6-dimethyl-1,2,4-triazin-3-yl)-2-methylpyrimidin-4 (3H)-one] | 25 | –
CCCCc1nc(C)n(-c2ncn(C)n2)c(=O)c1Cc1ccc(-c2ccccc2-c2nnn[nH]2)cc1 [Example 65, 5-{[2′-(1H-tetrazol-5-yl)biphenyl-4-yl]methyl}-6-butyl-2-methyl-3-(1-methyl-1H-1,2,4-triazol-3-yl)pyrimidin-4 (3H)-one] | 23 | –
CCCCc1nc(C)n(-c2nc3ccccc3s2)c(=O)c1Cc1ccc(-c2ccccc2-c2nnn[nH]2)cc1 [Example 70, 5-{[2′-(1H-tetrazol-5-yl)biphenyl-4-yl]methyl}-3-(benzothiazol-2-v1)-6-butyl-2-methylpyrimidin-4 (3H)-one] | – | EC50 (human PPARγ2; COS7 cells, read-out: EC50): 690 nM; Emax (human PPARγ2; COS7 cells): 39.7%; maximum activity compared with telmisartan (human PPARγ2; maximum PPARγ activity, telmisartan 30 to 50% of rosiglitazone under the same condition): the same or greater than that of telmisartan
CCCc1nc2c(C)cc(-c3nc4ccccc4n3C)cc2n1Cc1ccc(-c2ccccc2C(=O)O)cc1 [telmisartan, reference compound] | – | Emax (human PPARγ2; COS7 cells): 30 to 50%; EC50 (human PPARγ2; EC50, COS7 cells): 1000 to 5000 nM

More lines, main results first:

IC50 [1] [nM] | SMILES | also measured
4.3 | CCCCc1nc(C)n(-c2ncc(OCCCC(=O)O)cn2)c(=O)c1Cc1ccc(-c2ccccc2-c2nnn[nH]2)cc1 [Example 46, 4-{2-{5-{[2′-(1H-tetrazol-5-yl)biphenyl-4-yl]methyl}-4-butyl-2-methyl-6-oxopyrimidin-1(6H)-yl}pyrimidin-5-yloxy}butanoic acid] | –
9.9 | CCCCc1nc(C)n(-c2ncc(OCCCC(=O)NC)cn2)c(=O)c1Cc1ccc(-c2ccccc2-c2nnn[nH]2)cc1 [Example 48, 4-{2-{5-{[2′-(1H-tetrazol-5-yl)biphenyl-4-yl]methyl}-4-butyl-2-methyl-6-oxopyrimidin-1(6H)-yl}pyrimidin-5-yloxy}-N-methylbutanamide] | –
5.8 | CCCCc1nc(C)n(-c2ncc(OCCCC(=O)NC(C)C)cn2)c(=O)c1Cc1ccc(-c2ccccc2-c2nnn[nH]2)cc1 [Example 51, 4-{2-{5-{[2′-(1H-tetrazol-5-yl)biphenyl-4-yl]methyl}-4-butyl-2-methyl-6-oxopyrimidin-1(6H)-yl}pyrimidin-5-yloxy}-N-isopropylbutanamide] | –
8.5 | CCCCc1nc(C)n(-c2ncc(OCCCCC(N)=O)cn2)c(=O)c1Cc1ccc(-c2ccccc2-c2nnn[nH]2)cc1 [Example 53, 5-{2-{5-{[2′-(1H-tetrazol-5-yl)biphenyl-4-yl]methyl}-4-butyl-2-methyl-6-oxopyrimidin-1(6H)-yl}pyrimidin-5-yloxy}pentanamide] | –
2.4 | CCCCc1nc(C)n(-c2ncc(OCCCNC(C)=O)cn2)c(=O)c1Cc1ccc(-c2ccccc2-c2nnn[nH]2)cc1 [Example 56, N-{3-{2-{5-{[2′-(1H-tetrazol-5-yl)biphenyl-4-yl]methyl}-4-butyl-2-methyl-6-oxopyrimidin-1 (6H)-yl}pyrimidin-5-yloxy}propyl}acetamide] | –
3.6 | CCCCc1nc(C)n(-c2ncc(OCCCNS(C)(=O)=O)cn2)c(=O)c1Cc1ccc(-c2ccccc2-c2nnn[nH]2)cc1 [Example 57, N-{3-{2-{5-{[2′-(1H-tetrazol-5-yl)biphenyl-4-yl]methyl}-4-butyl-2-methyl-6-oxopyrimidin-1(6H)-yl}pyrimidin-5-yloxy}propyl}methane sulfonamide] | –
8.1 | CCCCc1nc(C)n(-c2cnccn2)c(=O)c1Cc1ccc(-c2ccccc2-c2nnn[nH]2)cc1 [Example 60, 5-{[2′-(1H-tetrazol-5-yl)biphenyl-4-yl]methyl}-6-butyl-2-methyl-3-(pyrazin-2-yl)pyrimidin-4 (3H)-one] | –
